Laboratory results reported in ChEMBL document CHEMBL1201862, “PubChem BioAssay data set” (2004).
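The compound was tested at five concentrations on cells cultured in 96-well plates, with a 48-hour exposure period. GI50 = concentration required for 50% inhibition of growth.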 The source made the active and inactive calls. No stated cut-off is given here; in the data, active = GI50 up to about 1.1 µM and inactive = higher.

Experiments:
Experiment in all cases: DTP human tumour cell line panel, 48 h
[1] = system: HT-29
[2] = system: T47D
[3] = system: A549
[4] = system: HCC 2998
[5] = system: MDA-MB-435
[6] = system: SNB-75
[7] = system: Malme-3M
[8] = system: RPMI-8226
[9] = system: UACC-257
[10] = system: SN12C
[11] = system: HCT-15
[12] = system: NCI-H23
[13] = system: EKVX
[14] = system: HOP-62
[15] = system: CCRF-CEM
[16] = system: OVCAR-3
[17] = system: SF-539
[18] = system: SNB-19
[19] = system: NCI-H522
[20] = system: NCI-H460

Row | SMILES | GI50 [1] | GI50 [2] | GI50 [3] | GI50 [4] | GI50 [5] | GI50 [6] | GI50 [7] | GI50 [8] | GI50 [9] | GI50 [10] | GI50 [11] | GI50 [12] | GI50 [13] | GI50 [14] | GI50 [15] | GI50 [16] | GI50 [17] | GI50 [18] | GI50 [19] | GI50 [20]
1 | CCOC(=O)CSc1[nH]c(NC(=S)Nc2ccccc2)c(C(N)=O)c1C(N)=O | > 10 µM (inactive) | > 10 µM (inactive) | > 10 µM (inactive) | 6.28 µM (inactive) | > 10 µM (inactive) | > 10 µM (inactive) | > 10 µM (inactive) | > 10 µM (inactive) | > 10 µM (inactive) | > 10 µM (inactive) | > 10 µM | > 10 µM (inactive) | > 10 µM (inactive) | > 10 µM (inactive) | 4.95 µM (inactive) |  |  |  |  | 
2 | CCOC(=O)c1c(SC(=O)c2ccc(OC)cc2)n(-c2ccccc2)c(=S)n(-c2ccccc2)c1=O | 46.1 µM (inactive) | > 100 µM (inactive) | > 100 µM (inactive) | > 100 µM (inactive) | 54.6 µM (inactive) | > 100 µM (inactive) | > 100 µM (inactive) |  | > 100 µM (inactive) | 76.9 µM (inactive) | 23.4 µM | 61.9 µM (inactive) | > 100 µM (inactive) | > 100 µM (inactive) | 35.6 µM (inactive) | 50 µM (inactive) | 21.2 µM (inactive) | > 100 µM (inactive) | 49.4 µM (inactive) | 84.7 µM (inactive)
3 | COC(=O)C1(CCC(C)=O)CCCCCC1=O (configuration not stated) | > 100 µM (inactive) | > 100 µM (inactive) | > 100 µM (inactive) | > 100 µM (inactive) | > 100 µM (inactive) | > 100 µM (inactive) | > 100 µM (inactive) | > 100 µM (inactive) | > 100 µM (inactive) | > 100 µM (inactive) | > 100 µM | > 100 µM (inactive) | > 100 µM (inactive) | > 100 µM (inactive) |  | > 100 µM (inactive) | > 100 µM (inactive) | > 100 µM (inactive) | > 100 µM (inactive) | > 100 µM (inactive)
4 | COc1cccc(N(CN2C(=O)CCC2C(=O)O)C(C)=O)c1 (configuration not stated) | > 100 µM (inactive) | > 100 µM (inactive) | > 100 µM (inactive) | > 100 µM (inactive) | > 100 µM (inactive) | > 100 µM (inactive) | > 100 µM (inactive) | > 100 µM (inactive) | > 100 µM (inactive) | > 100 µM (inactive) | > 100 µM | > 100 µM (inactive) | > 100 µM (inactive) | > 100 µM (inactive) |  | > 100 µM (inactive) | > 100 µM (inactive) | > 100 µM (inactive) | > 100 µM (inactive) | > 100 µM (inactive)
5 | O=C(O)C1CC2(C1)CC(C(=O)O)C2 (configuration not stated) | > 100 µM (inactive) | > 100 µM (inactive) | > 100 µM (inactive) | > 100 µM (inactive) | > 100 µM (inactive) | > 100 µM (inactive) | > 100 µM (inactive) | > 100 µM (inactive) | > 100 µM (inactive) | > 100 µM (inactive) | > 100 µM | > 100 µM (inactive) | > 100 µM (inactive) | > 100 µM (inactive) |  | > 100 µM (inactive) | > 100 µM (inactive) | > 100 µM (inactive) | > 100 µM (inactive) | > 100 µM (inactive)
6 | COc1ccc2[nH]c3cc4c(=O)c5cc(OC)ccc5[nH]c4cc3c(=O)c2c1 | > 100 µM (inactive) | > 100 µM (inactive) | > 100 µM (inactive) | > 100 µM (inactive) | > 100 µM (inactive) | 26.9 µM (inactive) | > 100 µM (inactive) | > 100 µM (inactive) | > 100 µM (inactive) | > 100 µM (inactive) | > 100 µM | > 100 µM (inactive) | > 100 µM (inactive) | 69.5 µM (inactive) |  | > 100 µM (inactive) |  | > 100 µM (inactive) | > 100 µM (inactive) | > 100 µM (inactive)
7 | OC(CN1CCCCC1)c1ccc(/C=C/c2ccc(Cl)cc2)cc1 (configuration not stated) | 12 µM (inactive) | > 100 µM (inactive) | > 100 µM (inactive) | 46 µM (inactive) | 54.3 µM (inactive) |  | 60.3 µM (inactive) | 27.6 µM (inactive) | 21.6 µM (inactive) | > 100 µM (inactive) | 25.2 µM | > 100 µM (inactive) | > 100 µM (inactive) | 94.8 µM (inactive) | 70.5 µM (inactive) | 89.1 µM (inactive) | 43.6 µM (inactive) | > 100 µM (inactive) | 21.3 µM (inactive) | 54.6 µM (inactive)
8 | CCc1ccccc1NC(=O)C(=O)CC(=O)c1sc(Nc2ccccc2Cl)nc1C | 22.1 µM (inactive) | 35.7 µM (inactive) | 24 µM (inactive) | 30.1 µM (inactive) | 25.6 µM (inactive) |  |  | 19.2 µM (inactive) | 43.8 µM (inactive) | 42.7 µM (inactive) | 30.6 µM | 30.3 µM (inactive) | 52.4 µM (inactive) | 31.6 µM (inactive) | 18 µM (inactive) | 19.5 µM (inactive) | 24.4 µM (inactive) | 39.1 µM (inactive) | 18.1 µM (inactive) | 21.2 µM (inactive)
9 | O=C(Nc1ccccc1)c1cc2ccccc2c(/N=N\c2cccc([N+](=O)[O-])c2)c1O | > 100 µM (inactive) | > 100 µM (inactive) | > 100 µM (inactive) | > 100 µM (inactive) | > 100 µM (inactive) | 33.5 µM (inactive) | 7.26 µM (inactive) |  | > 100 µM (inactive) | > 100 µM (inactive) | > 100 µM | > 100 µM (inactive) | 39 µM (inactive) | 41.1 µM (inactive) | > 100 µM (inactive) | > 100 µM (inactive) | 54.8 µM (inactive) | 31 µM (inactive) | 5.56 µM (inactive) | > 100 µM (inactive)
10 | COC1OC(C)/C(=N/O)C2OC(C)(C)OC12 (configuration not stated) | > 100 µM (inactive) | > 100 µM (inactive) | > 100 µM (inactive) | > 100 µM (inactive) | > 100 µM (inactive) |  | > 100 µM (inactive) | > 100 µM (inactive) | > 100 µM (inactive) | > 100 µM (inactive) | > 100 µM | > 100 µM (inactive) | > 100 µM (inactive) | > 100 µM (inactive) | > 100 µM (inactive) | > 100 µM (inactive) | > 100 µM (inactive) | > 100 µM (inactive) | > 100 µM (inactive) | > 100 µM (inactive)
11 | O=[N+]([O-])c1cc(Cl)cnc1Br | 3.28 µM (inactive) | 3.1 µM (inactive) | 2.67 µM (inactive) | 1.37 µM (inactive) | 2.23 µM (inactive) |  | 10.9 µM (inactive) | 2.84 µM (inactive) | 9.48 µM (inactive) | 2.92 µM (inactive) | 2.25 µM | 5.52 µM (inactive) | 4.19 µM (inactive) | 18.3 µM (inactive) | 4.32 µM (inactive) | 2.38 µM (inactive) | 2.05 µM (inactive) | 9.71 µM (inactive) |  | 3.95 µM (inactive)
